Like-named read-outs stand apart in the source and are kept apart here.
What was measured:
MRSA ATCC 43300 = assay: Constant concentration time-kill curves; format: cell-based, Staphylococcus aureus
Procedure: Time–kill curve experiments were performed in triplicate according previous report. In this experiment, MRSA, in logarithmic phase, was diluted to 10^6 CFU/mL with MH broth. […] The mixtures and control which was free of drug were cultured at 37 °C with shaking. A total of 20 µL aliquots from solutions were serially diluted 10-fold in 0.9% saline, at different time intervals (0, 3, 6, 9, and 24 h). Then the dilutions were plated onto MH agar medium and incubated at 37 °C for 18–24 h. The bacterial colonies were counted, and results were represented as the logarithm of the colony numbers. The time-kill curve was constructed by plotting log CFU/mL versus time.

[1] = Pharmacokinetic study in mice; format: in vivo; settings: female, ICR, mouse, plasma, 10 mg/kg
Procedure: Pharmacokinetic parameters of amphenmulin were measured according to previous reports with some modifications. Each group consisted of eight female SPF-ICR mice. Amphenmulin (1 mg/mL) was administered intravenously, intraperitoneally, and orally at a dose of 10 mg/kg, respectively. Formulation of amphenmulin was a filtered solution in 5% DMSO, 5% Tween-80, and 90% normal saline. Serial samples (each 0.2 mL) were collected from the ocular venous plexus and placed in a plastic centrifuge tube. The blood samples were placed at room temperature for 20 min and transferred to a 4 °C refrigerator for 12 h to promote blood coagulation. Then samples were centrifuged at 2000 r/min for 10 min to get serum. Serum samples were frozen at −20°C. 100 µL of samples was accurately absorbed and mixed with 100 µL of acetonitrile in a 1.5 mL centrifuge tube. The sample was mixed vigorously and centrifuged at 12,000 rpm for 10 min. The supernatant was transferred, filtered through a 0.22 μm cellulose membrane filter and used for LC-MS/MS analysis. Equipment and analysis conditions were shown in supplemental data. The pharmacokinetic parameters of amphenmulin were determined from the mean plasma concentration with noncompartmental analysis in WinNonlin 5.2 software (Pharsight, Mountain View, CA, USA). Data were shown as mean ± standard deviation (SD).

[2] = intraperitoneal, mice, intraperitoneal 10 mg/kg, n = 8, read-out: plasma concentration, mean ± S.D
[3] = iv, intravenous 10 mg/kg, mice 1-8 in order, read-out: plasma concentration, individual mice

Which results are given for `C=C[C@]1(C)C[C@@H](OC(=O)CSc2ccccc2N)[C@]2(C)[C@H](C)CC[C@]3(CCC(=O)[C@H]32)[C@@H](C)[C@@H]1O` [Amphenmulin, 22-(2-amino-phenylsulfanyl)-22-deoxypleuromutilin]?
colony numbers of MRSA (MRSA ATCC 43300; 0.5×MIC, 3 h): 7.17±0.08 log CFU/mL; colony numbers of MRSA (MRSA ATCC 43300; 0.5×MIC, 6 h): 7.83±0.16 log CFU/mL; colony numbers of MRSA (MRSA ATCC 43300; 0.5×MIC, 9 h): 8.22±0.15 log CFU/mL; colony numbers of MRSA (MRSA ATCC 43300; 0.5×MIC, 24 h): 8.33±0.10 log CFU/mL; colony numbers of MRSA (MRSA ATCC 43300; 1×MIC, 3 h): 6.84±0.08 log CFU/mL; colony numbers of MRSA (MRSA ATCC 43300; 1×MIC, 6 h): 7.44±0.06 log CFU/mL; colony numbers of MRSA (MRSA ATCC 43300; 1×MIC, 9 h): 7.86±0.13 log CFU/mL; colony numbers of MRSA (MRSA ATCC 43300; 1×MIC, 24 h): 7.70±0.46 log CFU/mL; colony numbers of MRSA (MRSA ATCC 43300; 2×MIC, 3 h): 6.43±0.13 log CFU/mL; colony numbers of MRSA (MRSA ATCC 43300; 2×MIC, 6 h): 6.56±0.23 log CFU/mL; colony numbers of MRSA (MRSA ATCC 43300; 2×MIC, 9 h): 7.07±0.42 log CFU/mL; colony numbers of MRSA (MRSA ATCC 43300; 2×MIC, 24 h): 7.26±0.62 log CFU/mL; colony numbers of MRSA (MRSA ATCC 43300; 4×MIC, 3 h): 5.96±0.66 log CFU/mL; colony numbers of MRSA (MRSA ATCC 43300; 4×MIC, 6 h): 6.13±0.06 log CFU/mL; colony numbers of MRSA (MRSA ATCC 43300; 4×MIC, 9 h): 5.77±0.15 log CFU/mL; colony numbers of MRSA (MRSA ATCC 43300; 4×MIC, 24 h): 4.04±0.58 log CFU/mL; colony numbers of MRSA (MRSA ATCC 43300; 8×MIC, 3 h): 5.91±0.03 log CFU/mL; colony numbers of MRSA (MRSA ATCC 43300; 8×MIC, 6 h): 5.98±0.09 log CFU/mL; colony numbers of MRSA (MRSA ATCC 43300; 8×MIC, 9 h): 5.78±0.09 log CFU/mL; colony numbers of MRSA (MRSA ATCC 43300; 8×MIC, 24 h): 3.55±0.16 log CFU/mL; colony numbers of MRSA (MRSA ATCC 43300; 16×MIC, 3 h): 5.79±0.12 log CFU/mL; colony numbers of MRSA (MRSA ATCC 43300; 16×MIC, 6 h): 5.77±0.15 log CFU/mL; colony numbers of MRSA (MRSA ATCC 43300; 16×MIC, 9 h): 5.64±0.11 log CFU/mL; colony numbers of MRSA (MRSA ATCC 43300; 16×MIC, 24 h): 2.97±0.06 log CFU/mL; colony numbers of MRSA (MRSA ATCC 43300; 32×MIC, 3 h): 5.60±0.18 log CFU/mL; colony numbers of MRSA (MRSA ATCC 43300; 32×MIC, 6 h): 5.91±0.56 log CFU/mL; colony numbers of MRSA (MRSA ATCC 43300; 32×MIC, 9 h): 5.11±0.36 log CFU/mL; colony numbers of MRSA (MRSA ATCC 43300; 32×MIC, 24 h): 2.43±0.67 log CFU/mL; type of antibacterial activity in time-kill curve (MRSA ATCC 43300; at the concentration of 4× MIC): bacteriostatic activity; concentration at 0.083 h [1, 2]: 850 ± 320 ng/mL; concentration at 0.25 h [1, 2]: 1220 ± 460 ng/mL; concentration at 0.5 h [1, 2]: 980 ± 420 ng/mL; concentration at 0.75 h [1, 2]: 740 ± 330 ng/mL; concentration at 1 h ([1]; intraperitoneal, mice, intraperitoneal 10 mg/kg, 1 h, n = 8, read-out: plasma concentration, mean ± S.D): 580 ± 240 ng/mL; concentration at 2 h ([1]; intraperitoneal, mice, intraperitoneal 10 mg/kg, 2 h, n = 8, read-out: plasma concentration, mean ± S.D): 340 ± 160 ng/mL; concentration at 4 h ([1]; intraperitoneal, mice, intraperitoneal 10 mg/kg, 4 h, n = 8, read-out: plasma concentration, mean ± S.D): 190 ± 120 ng/mL; concentration at 6 h ([1]; intraperitoneal, mice, intraperitoneal 10 mg/kg, 6 h, n = 8, read-out: plasma concentration, mean ± S.D): 120 ± 90 ng/mL; concentration at 8 h ([1]; intraperitoneal, mice, intraperitoneal 10 mg/kg, 8 h, n = 8, read-out: plasma concentration, mean ± S.D): 70 ± 40 ng/mL; concentration at 12 h ([1]; intraperitoneal, mice, intraperitoneal 10 mg/kg, 12 h, n = 8, read-out: plasma concentration, mean ± S.D): 30 ± 10 ng/mL; AUC(0-inf) ([1]; ip, mice, intraperitoneal): 2520 ± 810 ng·h/mL; Cmax ([1]; ip, mice, intraperitoneal): 1340 ± 420 ng/mL; MRT ([1]; ip, mice, intraperitoneal): 3.28 ± 0.42 h; Tmax ([1]; ip, mice, intraperitoneal): 0.32 ± 0.21 h; bioavailability ([1]; ip, mice, intraperitoneal): 20.7%; half-life ([1]; ip, mice, intraperitoneal): 2.64 ± 0.72 h; Vd/F ([1]; ip, mice, intraperitoneal, read-out: Vz/F): 15.9 ± 7.41 L/kg; concentration at 0.083 h [1, 3]: 3060 ng/mL; concentration at 0.25 h [1, 3]: 2850 ng/mL; concentration at 0.5 h [1, 3]: 2650 ng/mL; concentration at 0.75 h [1, 3]: 2350 ng/mL
